Among the data in ChEMBL document CHEMBL1201862, “PubChem BioAssay data set” (2004) are IC50, EC50 and CC50 values, retold here.

Holding throughout (format): functional
The target in assay [1] is T1, Orexin receptor type 2 (Homo sapiens, UniProt O43614).
T1 sequence (O43614 whole entry): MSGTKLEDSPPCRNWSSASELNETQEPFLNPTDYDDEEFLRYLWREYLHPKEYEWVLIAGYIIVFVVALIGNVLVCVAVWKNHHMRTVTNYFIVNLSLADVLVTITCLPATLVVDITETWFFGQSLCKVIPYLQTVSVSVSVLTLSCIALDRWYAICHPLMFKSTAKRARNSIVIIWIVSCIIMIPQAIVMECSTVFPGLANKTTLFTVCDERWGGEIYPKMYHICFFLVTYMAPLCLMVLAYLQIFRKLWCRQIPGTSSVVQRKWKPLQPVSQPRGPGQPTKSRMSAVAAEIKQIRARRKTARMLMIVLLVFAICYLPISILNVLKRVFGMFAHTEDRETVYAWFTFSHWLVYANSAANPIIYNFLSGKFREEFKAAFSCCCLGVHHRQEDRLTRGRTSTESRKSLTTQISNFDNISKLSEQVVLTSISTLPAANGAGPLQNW
As to the kind of experiment: Counterscreen assay for antagonists of the orexin 1 receptor (OX1R; HCRTR1): Homogeneous Time Resolved Fluorescence (HTRF)-based cell-based dose response assay for antagonists of the orexin 2 receptor (OX2R; HCRTR2), run by assay provider.

Assay [2] addresses T2, Orexin/Hypocretin receptor type 1 (Homo sapiens, UniProt O43613).
T2 sequence (O43613 whole entry): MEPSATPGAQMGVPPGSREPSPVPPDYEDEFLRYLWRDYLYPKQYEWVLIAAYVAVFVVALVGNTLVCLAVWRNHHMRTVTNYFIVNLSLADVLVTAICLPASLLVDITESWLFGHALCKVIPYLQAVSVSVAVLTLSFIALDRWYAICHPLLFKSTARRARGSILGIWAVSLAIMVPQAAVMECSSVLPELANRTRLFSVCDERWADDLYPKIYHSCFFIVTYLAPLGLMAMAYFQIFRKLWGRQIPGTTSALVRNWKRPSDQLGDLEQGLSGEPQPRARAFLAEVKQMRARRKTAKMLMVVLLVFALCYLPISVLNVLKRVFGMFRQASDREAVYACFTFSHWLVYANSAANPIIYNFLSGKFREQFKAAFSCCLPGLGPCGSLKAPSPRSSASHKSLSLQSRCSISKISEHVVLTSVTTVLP
Briefly: Fluorescence-based cell-based high throughput dose response assay for antagonists of the orexin 1 receptor (OX1R; HCRTR1). [Related pubchem assays (depositor defined):AID434989, AID435008, AID463079, AID485270, AID492963, AID492964, AID492965, AID493232, AID504717, AID504718].

The nature of assay [3]: Counterscreen for antagonists of the orexin 1 receptor (OX1R; HCRTR1): Fluorescence-based cell-based high throughput dose response assay to identify antagonists of the parental CHO cell line. [Related pubchem assays (depositor defined):AID434989, AID435008, AID463079, AID485270, AID492963, AID492964, AID492965, AID493232, AID504699, AID504701]. In general terms: A counterscreen serves to expose hits that act by an unwanted route or on another target.

For the next assay, the system named is CHO-K1. Briefly: Counterscreen for antagonists of the orexin 1 receptor (OX1R; HCRTR1): Homogeneous time resolved fluorescence (HTRF)-based cell-based dose response assay to identify antagonists of the parental CHO-K1 cell line. [Related pubchem assays (depositor defined):AID434989, AID435008, AID463079, AID485270, AID492963, AID492964, AID492965, AID493232, AID504699, AID504701]. The note with it: Cricetulus griseus.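 Note: potency for inhibition of ATP-stimulated IP1 production as antagonists.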

Assay [4] concerns the target T1, Orexin receptor type 2. As to the kind of experiment: Counterscreen assay for antagonists of the orexin 1 receptor (OX1R; HCRTR1): Fluorescence-based cell-based dose response assay for antagonists of the orexin 2 receptor (OX2R; HCRTR2), run by assay provider.
In assay [5] the target is T2, Orexin/Hypocretin receptor type 1. Briefly: Homogeneous Time Resolved Fluorescence (HTRF)-based cell-based high throughput dose response assay for antagonists of the orexin 1 receptor (OX1R; HCRTR1). [Related pubchem assays (depositor defined):AID434989, AID435008, AID463079, AID485270, AID492963, AID492964, AID492965, AID493232, AID504717, AID504718]. Background: In TR-FRET formats the signal depends on donor and acceptor labels being close together.

Assay [6] concerns the target T3, High affinity choline transporter 1 (Homo sapiens, UniProt Q9GZV3).
T3 sequence (Q9GZV3 whole entry): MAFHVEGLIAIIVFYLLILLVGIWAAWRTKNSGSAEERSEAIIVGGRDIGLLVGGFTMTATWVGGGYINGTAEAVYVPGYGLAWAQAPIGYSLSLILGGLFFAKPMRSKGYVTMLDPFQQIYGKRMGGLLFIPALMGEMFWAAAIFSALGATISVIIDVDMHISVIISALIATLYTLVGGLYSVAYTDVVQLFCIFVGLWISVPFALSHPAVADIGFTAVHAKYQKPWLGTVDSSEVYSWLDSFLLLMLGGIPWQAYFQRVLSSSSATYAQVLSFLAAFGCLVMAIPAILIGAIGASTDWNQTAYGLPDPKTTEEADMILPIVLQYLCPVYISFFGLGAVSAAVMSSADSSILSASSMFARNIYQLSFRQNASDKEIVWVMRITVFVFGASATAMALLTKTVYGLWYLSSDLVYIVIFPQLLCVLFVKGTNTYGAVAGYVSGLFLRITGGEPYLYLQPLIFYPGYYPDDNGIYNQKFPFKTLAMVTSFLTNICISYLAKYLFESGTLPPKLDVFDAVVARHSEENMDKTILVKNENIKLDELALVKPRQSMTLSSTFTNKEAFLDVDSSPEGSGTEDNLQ
Briefly: CHT activators, dose response, cell-based, 10-point CRC, membrane potential dye (AID 602376).

Assay [7] can be described thus: THP-1 cell cytotoxicity, dose response, cytotoxicity control for non-replicating M. tuberculosis project (AID 489025).
Another assay is described as follows: cells.
Assay [8] addresses T4, Sentrin-specific protease 6 (Homo sapiens, UniProt Q9GZR1).
T4 sequence (Q9GZR1 whole entry): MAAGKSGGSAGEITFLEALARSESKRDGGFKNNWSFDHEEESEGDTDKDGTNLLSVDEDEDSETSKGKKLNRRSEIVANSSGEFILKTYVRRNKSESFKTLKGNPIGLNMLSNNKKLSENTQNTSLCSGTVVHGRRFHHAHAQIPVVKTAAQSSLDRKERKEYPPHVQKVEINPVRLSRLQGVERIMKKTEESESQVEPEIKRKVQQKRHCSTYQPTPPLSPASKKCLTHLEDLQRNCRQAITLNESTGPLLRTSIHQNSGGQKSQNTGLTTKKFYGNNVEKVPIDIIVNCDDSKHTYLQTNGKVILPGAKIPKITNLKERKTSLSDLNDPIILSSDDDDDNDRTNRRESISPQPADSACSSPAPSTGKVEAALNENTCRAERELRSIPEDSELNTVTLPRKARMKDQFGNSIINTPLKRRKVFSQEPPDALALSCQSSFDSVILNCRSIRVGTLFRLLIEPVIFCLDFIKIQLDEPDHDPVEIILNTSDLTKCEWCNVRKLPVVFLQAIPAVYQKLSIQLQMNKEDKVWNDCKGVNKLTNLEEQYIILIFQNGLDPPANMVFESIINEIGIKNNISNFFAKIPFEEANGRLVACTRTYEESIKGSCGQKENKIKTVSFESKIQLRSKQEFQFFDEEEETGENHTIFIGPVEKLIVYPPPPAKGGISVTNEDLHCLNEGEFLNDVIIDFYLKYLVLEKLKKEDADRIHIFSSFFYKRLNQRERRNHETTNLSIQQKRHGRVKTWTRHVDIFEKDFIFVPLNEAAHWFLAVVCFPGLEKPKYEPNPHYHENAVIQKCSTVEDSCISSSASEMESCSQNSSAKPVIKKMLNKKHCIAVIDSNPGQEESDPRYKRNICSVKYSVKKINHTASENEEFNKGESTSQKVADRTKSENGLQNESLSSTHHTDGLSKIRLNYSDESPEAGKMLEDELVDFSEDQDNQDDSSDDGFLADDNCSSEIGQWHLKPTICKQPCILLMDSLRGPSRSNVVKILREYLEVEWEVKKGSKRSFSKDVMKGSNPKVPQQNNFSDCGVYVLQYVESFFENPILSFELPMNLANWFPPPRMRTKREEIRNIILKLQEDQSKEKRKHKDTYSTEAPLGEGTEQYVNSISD
Briefly: SAR Analysis of small molecule inhibitors of Sentrin-specific protease 6 (SENP6) using a Luminescent assay. [Related pubchem assays (depositor defined):AID2582, AID2599].

The target in assay [9] is T5, Sentrin-specific protease 7 (Homo sapiens, UniProt Q9BQF6).
T5 sequence (Q9BQF6 whole entry): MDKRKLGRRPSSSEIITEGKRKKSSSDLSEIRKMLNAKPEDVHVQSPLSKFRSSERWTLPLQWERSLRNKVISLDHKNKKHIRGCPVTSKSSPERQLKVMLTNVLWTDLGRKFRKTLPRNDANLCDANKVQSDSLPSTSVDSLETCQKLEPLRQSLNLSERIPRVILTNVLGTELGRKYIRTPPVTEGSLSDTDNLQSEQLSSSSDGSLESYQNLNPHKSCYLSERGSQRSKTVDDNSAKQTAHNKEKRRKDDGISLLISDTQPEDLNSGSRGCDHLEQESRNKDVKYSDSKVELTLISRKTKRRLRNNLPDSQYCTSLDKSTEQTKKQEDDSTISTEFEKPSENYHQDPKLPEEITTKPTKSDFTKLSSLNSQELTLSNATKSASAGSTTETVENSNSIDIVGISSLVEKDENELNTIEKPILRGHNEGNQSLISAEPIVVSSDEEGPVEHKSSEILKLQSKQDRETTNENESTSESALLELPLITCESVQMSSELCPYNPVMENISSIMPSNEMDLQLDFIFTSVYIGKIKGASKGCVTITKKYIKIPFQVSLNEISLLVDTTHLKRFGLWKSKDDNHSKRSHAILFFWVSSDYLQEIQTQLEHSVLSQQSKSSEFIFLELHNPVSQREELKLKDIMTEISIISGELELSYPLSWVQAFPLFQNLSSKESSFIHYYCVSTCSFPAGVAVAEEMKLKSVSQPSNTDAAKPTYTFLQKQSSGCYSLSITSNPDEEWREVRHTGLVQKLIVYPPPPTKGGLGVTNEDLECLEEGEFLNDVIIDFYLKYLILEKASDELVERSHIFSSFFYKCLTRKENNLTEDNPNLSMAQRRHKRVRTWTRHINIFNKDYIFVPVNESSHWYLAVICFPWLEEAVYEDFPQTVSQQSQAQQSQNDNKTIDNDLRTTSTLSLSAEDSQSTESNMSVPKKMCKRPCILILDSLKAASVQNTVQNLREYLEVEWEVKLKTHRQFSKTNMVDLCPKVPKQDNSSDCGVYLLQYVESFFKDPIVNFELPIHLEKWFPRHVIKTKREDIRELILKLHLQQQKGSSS
Briefly: SENP7 protease inhibitors, SAR follow-up, biochemical, luminescence (AID 504497).

The target in the next assay is T6, Caspase-3 (Homo sapiens, UniProt P42574).
T6 sequence (P42574 whole entry): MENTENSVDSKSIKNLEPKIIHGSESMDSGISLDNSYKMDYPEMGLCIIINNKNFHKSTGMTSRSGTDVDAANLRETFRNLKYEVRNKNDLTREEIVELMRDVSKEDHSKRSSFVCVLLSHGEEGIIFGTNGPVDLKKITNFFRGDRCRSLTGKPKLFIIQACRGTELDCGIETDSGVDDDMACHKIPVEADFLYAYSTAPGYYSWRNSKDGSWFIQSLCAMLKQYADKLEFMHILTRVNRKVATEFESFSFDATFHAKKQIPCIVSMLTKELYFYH
As to the kind of experiment: SAR Analysis of small molecule inhibitors of Sentrin-specific proteases (SENPs) using a Caspase-3 Selectivity assay. [Related pubchem assays (depositor defined):AID2540, AID2599, AID434973, AID489001].

Assay [10] deals with T7, Sentrin-specific protease 8 (Homo sapiens, UniProt Q96LD8).
T7 sequence (Q96LD8 whole entry): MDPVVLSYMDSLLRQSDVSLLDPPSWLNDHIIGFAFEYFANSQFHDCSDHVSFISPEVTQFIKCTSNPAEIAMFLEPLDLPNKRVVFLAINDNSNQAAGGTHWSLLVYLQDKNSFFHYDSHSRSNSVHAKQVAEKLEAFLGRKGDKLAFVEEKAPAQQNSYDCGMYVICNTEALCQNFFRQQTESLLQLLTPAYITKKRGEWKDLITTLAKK
As to the kind of experiment: SENP8 protease inhibitors, SAR follow-up, biochemical, luminescence (AID 504501).

Assay [11] addresses DNA dC->dU-editing enzyme APOBEC-3G (Homo sapiens, UniProt Q9HC16). As to the kind of experiment: APOBEC3G deaminase inhibitors, SAR follow-up, biochemical, fluorescence, single-stranded DNA substrate (AID 602136). Particulars: read-out: IC50_Mean.
Assay [12] deals with DNA dC->dU-editing enzyme APOBEC-3A (Homo sapiens, UniProt P31941). Briefly: SAR analysis of small molecule inhibitors of APOBEC3A DNA Deaminase via a fluorescence-based single-stranded DNA deaminase assay. Particulars: read-out: IC50_Mean.
Sequence of DNA dC->dU-editing enzyme APOBEC-3A (P31941 whole entry): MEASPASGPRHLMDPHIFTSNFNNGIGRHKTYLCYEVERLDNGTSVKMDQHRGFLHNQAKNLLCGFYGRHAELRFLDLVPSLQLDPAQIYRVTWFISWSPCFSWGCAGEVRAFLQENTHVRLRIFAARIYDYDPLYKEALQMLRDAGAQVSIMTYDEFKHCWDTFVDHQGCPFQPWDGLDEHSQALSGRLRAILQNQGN

The structures appear in SMILES notation. The source made the active and inactive calls.

Sequence of DNA dC->dU-editing enzyme APOBEC-3G (Q9HC16 whole entry): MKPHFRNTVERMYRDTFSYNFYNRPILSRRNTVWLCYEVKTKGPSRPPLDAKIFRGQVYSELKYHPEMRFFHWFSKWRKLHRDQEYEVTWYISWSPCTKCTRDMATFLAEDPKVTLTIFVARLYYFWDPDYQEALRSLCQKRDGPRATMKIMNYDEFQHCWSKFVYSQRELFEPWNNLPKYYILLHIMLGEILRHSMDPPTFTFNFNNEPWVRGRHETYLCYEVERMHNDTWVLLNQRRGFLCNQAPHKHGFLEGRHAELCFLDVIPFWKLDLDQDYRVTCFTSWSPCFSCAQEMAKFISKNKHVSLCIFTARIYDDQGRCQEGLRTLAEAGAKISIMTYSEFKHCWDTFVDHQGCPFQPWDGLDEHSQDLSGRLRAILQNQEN

As to `O=C(OCC#CCSc1nnc(-c2cccc3ccccc23)o1)c1cccc2[nH]ccc12`, the IC50 was 1.39 µM (active) at Orexin receptor type 2 [1]; 14 µM (inactive) in [2]; > 49.8 µM (inactive) in assay [3]; > 66.2 µM (inactive) with CHO-K1; > 88.8 µM (inactive) on Orexin receptor type 2 [4]; 506 nM (active) in assay [5].

`c1coc(CNc2nc(N3CCCCC3)nc3ccccc23)c1`: the EC50 in assay [6] was 1.79 µM (active). For the same compound, in [7], the CC50 was 19.6 µM (active). In addition, the IC50 in “cells” is 6.64 µM (active).

In the case of `O=C(NCCCN1CCN(CCCNC(=O)c2cccc(Cl)c2)CC1)c1cccc(Cl)c1`, the EC50 in assay [6] is 9.44 µM (active).

As for `CCOc1ccc(C(=O)Nc2ccc3ccccc3c2)cc1Cl`, the IC50 (in [8]; in assay [9]; at Caspase-3; in assay [10]) was > 99 µM (inactive) throughout.

For the compound `COc1cccc(/C=N/NC(=O)c2nnn(-c3nonc3N)c2CN(C)c2ccccc2)c1`, the IC50 at Orexin receptor type 2 [1] is 5.39 µM (active); in assay [2], 5.95 µM (active); in [3], > 49.7 µM (inactive); in the assay with CHO-K1, > 66.2 µM (inactive); at Orexin receptor type 2 [4], > 88.8 µM (inactive); in [5], 513 nM (active).

As to `CS(=O)(=O)N1CCC(C(=O)Nc2cc(C(F)(F)F)ccc2N2CCOCC2)CC1`, the IC50 in [11] and in assay [12] was > 99 µM (inactive) each time.

As a reminder, the EC50 is the concentration that produces a half-maximal response. For orientation: CC50 means the concentration that lowers cell viability or growth by half.
